From patent US12054486B2, “Pyridine derivatives and their use as sodium channel activators” (Xenon Pharmaceuticals Inc., priority 2021, dated 2024)

Biological target: sodium channel isoforms of interest stably expressed in Human Embryonic Kidney Cells (voltage-gated sodium channel, particularly NaV1.1) (Homo sapiens, UniProt P35498)
Assay: automated planar patch clamp assay of sodium channel gating (area under the sodium current trace)
Format: cell-based
Conditions: HEK cells, voltage step from −120 mV to 0 mV, increasing concentrations
From the text: A typical assay described in Crestey, F. et al., ACS Chem Neurosci (2015), Vol. 6, pp. 1302-1308, AA43279 (Frederiksen, K. et al., Eur J Neurosci (2017), Vol. 46, pp. 1887-1896) and Lu AE98134 (von Schoubyea, N. L. et al., Neurosci Lett (2018), Vol. 662, pp. 29-35) employs the use of automated planar patch clamp techniques to study the effects of the chemical agent on the gating of sodium channels. The sodium channel isoforms of interest are stably expressed in Human Embryonic Kidney Cells and the currents that flow through those channels in response to a depolarizing voltage clamp step from −120 mV to 0 mV are measured in the presence of increasing concentrations of the chemical agents. The area under the sodium current trace which correlates to the magnitude of sodium flux through the cell membrane is used to quantify the effects on gating of the channels. Other parameters that are measured in the assay include the peak current, time constant of open state inactivation and the voltage dependence of steady state inactivation properties. The concentration responses are used to determine potency of each chemical agents effects on modulating the sodium channel isoform gating. Such techniques are known to those skilled in the art, and may be developed, using current technologies, into low or medium throughput assays for evaluating compounds for their ability to modulate sodium channel behaviour.
As disclosed above, typical assays for testing compounds of the disclosure are known, for example as disclosed in Crestey, F. et al., ACS Chem Neurosci (2015), Vol. 6, pp. 1302-1308, AA43279 (Frederiksen, K. et al., Eur J Neurosci (2017), Vol. 46, pp. 1887-1896) and Lu AE98134 (von Schoubyea, N. L. et al., Neurosci Lett (2018), Vol. 662, pp. 29-35) which employs the use of automated planar patch clamp techniques to study the effects of the chemical agent on the gating of sodium channels. The sodium channel isoforms of interest are stably expressed in Human Embryonic Kidney Cells and the currents that flow through those channels in response to a depolarizing voltage clamp step from −120 mV to 0 mV are measured in the presence of increasing concentrations of the chemical agents. The area under the sodium current trace which correlates to the magnitude of sodium flux through the cell membrane is used to quantify the effects on gating of the channels. Other parameters that are measured in the assay include the peak current, time constant of open state inactivation and the voltage dependence of steady state inactivation properties. The concentration responses are used to determine potency of each chemical agents effects on modulating the sodium channel isoform gating.

| SMILES | EC50 [µM] | Empirical Emax |
| --- | --- | --- |
| CC1(C)OCCc2nc(-c3c(-c4ccccc4)ccnc3N3CCC(F)(F)C3)[nH]c21 [Example 54, 2-(2-(3,3-difluoropyrrolidin-1-yl)-4-phenylpyridin-3-yl)-4,4-dimethyl-3,4,6,7-tetrahydropyrano[3,4-d]imidazole] | 1 to 10 | +++ (+++ indicates a value from 5.0 up to 7.5 μM) |
| CC(C)(C)OC(=O)N1CCc2nc(-c3c(-c4ccccc4)ccnc3N3CCC(F)(F)C3)[nH]c2C1 [Example 55, Tert-Butyl 2-[2-(3,3-difluoropyrrolidin-1-yl)-4-phenyl-3-pyridyl]-3,4,6,7-tetrahydroimidazo[4,5-c]pyridine-5-carboxylate] | < 1 | +++ (+++ indicates a value from 5.0 up to 7.5 μM) |
| Fc1ccc(F)c(-c2ccnc(N3CC[C@H](F)C3)c2-c2nc3c([nH]2)COCC3)c1 [Example 56, (S)-2-(4-(2,5-difluorophenyl)-2-(3-fluoropyrrolidin-1-yl)pyridin-3-yl)-3,4,6,7-tetrahydropyrano[3,4-d]imidazole] | 1 to 10 | ++++ (++++ indicates a value greater than 7.5) |
| CC1(C)Cc2nc(-c3c(-c4cc(F)ccc4F)ccnc3N3CCC(F)(F)C3)[nH]c2CO1 [Example 57, 2-(4-(2,5-difluorophenyl)-2-(3,3-difluoropyrrolidin-1-yl)pyridin-3-yl)-6,6-dimethyl-3,4,6,7-tetrahydropyrano[3,4-d]imidazole] | < 1 | ++++ (++++ indicates a value greater than 7.5) |
| COC1CCc2nc(-c3c(-c4ccccc4)ccnc3N3CC[C@H](F)C3)[nH]c2C1 (stereo partly drawn) [Example 58, 2-(2-((S)-3-fluoropyrrolidin-1-yl)-4-phenylpyridin-3-yl)-6-methoxy-4,5,6,7-tetrahydro-1H-benzo[d]imidazole] | 1 to 10 | ++ (++ indicates a value from 2.0 up to 5.0 μM) |
| COC1CCc2nc(-c3c(-c4ccccc4)ccnc3N3CCC(F)(F)C3)[nH]c2C1 (stereo not drawn) [Example 59, 2-(2-(3,3-difluoropyrrolidin-1-yl)-4-phenylpyridin-3-yl)-6-methoxy-4,5,6,7-tetrahydro-1H-benzo[d]imidazole] | < 1 | ++ (++ indicates a value from 2.0 up to 5.0 μM) |
| FC1(F)CCN(c2nccc(-c3ccccc3)c2-c2nc3c([nH]2)CCCC3)C1 [Example 60, 2-(2-(3,3-difluoropyrrolidin-1-yl)-4-phenylpyridin-3-yl)-4,5,6,7-tetrahydro-1H-benzo[d]imidazole] | < 1 | ++ (++ indicates a value from 2.0 up to 5.0 μM) |
| Cc1[nH]c(-c2c(-c3ccccc3)ccnc2N2CCC(F)(F)C2)nc1-c1ccccc1 [Example 61, 2-(3,3-difluoropyrrolidin-1-yl)-3-(5-methyl-4-phenyl-1H-imidazol-2-yl)-4-phenylpyridine] | 1 to 10 | ++ (++ indicates a value from 2.0 up to 5.0 μM) |
| CC(C)(C)c1nc(-c2c(-c3ccccc3)ccnc2N2CCC(F)(F)C2)no1 [Example 62, 5-(tert-butyl)-3-(2-(3,3-difluoropyrrolidin-1-yl)-4-phenylpyridin-3-yl)-1,2,4-oxadiazole] | 1 to 10 | + (+ indicates a value less than 2.0 μM) |
| OC1Cc2nc(-c3c(-c4ccccc4)ccnc3N3CCC(F)(F)C3)[nH]c2C1 [Example 63, 2-(2-(3,3-difluoropyrrolidin-1-yl)-4-phenylpyridin-3-yl)-1,4,5,6-tetrahydrocyclopenta[d]imidazol-5-ol] | 1 to 10 | ++ (++ indicates a value from 2.0 up to 5.0 μM) |
| c1ccc(-c2ccnc(N3CCOCC3)c2-c2nc3c([nH]2)COCC3)cc1 [Example 64, 2-(2-morpholino-4-phenylpyridin-3-yl)-3,4,6,7-tetrahydropyrano[3,4-d]imidazole] | 10 to 50 | + (+ indicates a value less than 2.0 μM) |
| FC1(F)CN(c2nccc(-c3ccccc3)c2-c2nc3c([nH]2)COCC3)C1 [Example 65, 2-(2-(3,3-difluoroazetidin-1-yl)-4-phenylpyridin-3-yl)-3,4,6,7-tetrahydropyrano[3,4-d]imidazole] | ≥ 50 | ++ (++ indicates a value from 2.0 up to 5.0 μM) |
| c1ccc(-c2ccnc(N3CC4(COC4)C3)c2-c2nc3c([nH]2)COCC3)cc1 [Example 66, 2-(4-phenyl-2-(2-oxa-6-azaspiro[3.3]heptan-6-yl)pyridin-3-yl)-3,4,6,7-tetrahydropyrano[3,4-d]imidazole] | 1 to 10 | +++ (+++ indicates a value from 5.0 up to 7.5 μM) |
| c1ccc(-c2ccnc(OC3CCC3)c2-c2nc3c([nH]2)COCC3)cc1 [Example 67, 2-(2-cyclobutoxy-4-phenylpyridin-3-yl)-3,4,6,7-tetrahydropyrano[3,4-d]imidazole] | ≥ 50 | + (+ indicates a value less than 2.0 μM) |
| F[C@H]1CCN(c2nccc(-c3ccccc3)c2-c2nc3ccccc3o2)C1 [Example 68, (S)-2-(2-(3-fluoropyrrolidin-1-yl)-4-phenylpyridin-3-yl)benzo[d]oxazole] | ≥ 50 | + (+ indicates a value less than 2.0 μM) |
| F[C@H]1CCN(c2nccc(-c3ccccc3)c2-c2nc(-c3ccccc3)n[nH]2)C1 [Example 69, (S)-2-(3-fluoropyrrolidin-1-yl)-4-phenyl-3-(3-phenyl-1H-1,2,4-triazol-5-yl)pyridine] | 1 to 10 | ++ (++ indicates a value from 2.0 up to 5.0 μM) |
| Fc1ccccc1-c1ccnc(N2CCC(F)(F)C2)c1-c1nc2c([nH]1)COCC2 [Example 72, 2-[2-(3,3-difluoropyrrolidin-1-yl)-4-(2-fluorophenyl)-3-pyridyl]-1,4,6,7-tetrahydropyrano[3,4-d]imidazole] | < 1 | ++++ (++++ indicates a value greater than 7.5) |
| Fc1ccc(F)c(-c2ccnc(N3CCC(F)(F)C3)c2-c2nc3c([nH]2)CCOC3)c1 [Example 73, 2-[4-(2,5-difluorophenyl)-2-(3,3-difluoropyrrolidin-1-yl)-3-pyridyl]-1,4,6,7-tetrahydropyrano[3,4-d]imidazole] | < 1 | +++ (+++ indicates a value from 5.0 up to 7.5 μM) |
| FC1(F)CCN(c2nccc(-c3ccc4[nH]ncc4c3)c2-c2nc3c([nH]2)CCOC3)C1 [Example 74, 2-[2-(3,3-difluoropyrrolidin-1-yl)-4-(1H-indazol-5-yl)-3-pyridyl]-1,4,6,7-tetrahydropyrano[3,4-d]imidazole] | 1 to 10 | ++++ (++++ indicates a value greater than 7.5) |
| Fc1cccc(-c2ccnc(N3CCC(F)(F)C3)c2-c2nc3c([nH]2)CCOC3)c1 [Example 75, 2-[2-(3,3-difluoropyrrolidin-1-yl)-4-(3-fluorophenyl)-3-pyridyl]-1,4,6,7-tetrahydropyrano[3,4-d]imidazole] | < 1 | ++++ (++++ indicates a value greater than 7.5) |
| FC1(F)CCN(c2nccc(-c3ccccn3)c2-c2nc3c([nH]2)CCOC3)C1 [Example 76, 2-[2-(3,3-difluoropyrrolidin-1-yl)-4-(2-pyridyl)-3-pyridyl]-1,4,6,7-tetrahydropyrano[3,4-d]imidazole] | 10 to 50 | +++ (+++ indicates a value from 5.0 up to 7.5 μM) |
